Results from patent US6723897B2, “Methods for controlling gibberellin levels” (Monsanto Technology, LLC, priority 1998, dated 2004).

Tests used:
[1] = test system: AX5/antisense CPScc soybean line 46 (R2); assay: Hilum seed treatment of epicotyl-intensive GA-deficient soybean, seedling height (FIG. 42); type: in vivo, Glycine max; conditions: 8 DAP
Method: These studies are performed on soybean plants engineered to express their GA-deficient phenotype throughout the life cycle via the use of the constitutive FMV promoter (line 719, FMV/antisense CPScc). In contrast to the constitutive FMV promoter, the peak activity of the AX5 promoter is developmentally restricted to the soybean seedling axis (epicotyl) three to five days after the start of imbibition, with limited expression beyond the seedling stage of development. Soybean lines transformed with the […] cassette therefore display an epicotyl-intensive dwarf phenotype. In these lines, inhibition of the hypocotyl is modest; most of the total height reduction in these plants is due to shortening of the epicotyl. Rescue of […] soybean plants therefore presents different technical challenges from those required for rescue of constitutively GA-deficient transgenic dwarf soybean lines containing the […] construct. […] Seed from both lines is produced from greenhouse-grown plants. […] If multiple applications are made to seeds, the previous application is allowed to dry before a subsequent application is made. […] (29° C.) day and 75° F. night (24° C.). Pots are watered as necessary by overhead hand watering. Hypocotyl and epicotyl measurements are made for each plant at various stages of plant growth. […] The results are shown in FIG. 42, where the error bar represents +/-two times the standard error of the mean (n=12-15). […] The upper dashed horizontal line represents the total height of untreated wild-type […] soybeans. Measurements are made 8 days after planting.

[2] = test system: constitutively GA-deficient transgenic dwarf soybean line 719; assay: Field trial of seed coating application rates, GA-deficient soybean; type: in vivo, Glycine max; conditions: for 719 Height, cm, Heavy soil / 719 Height, cm, Light soil / No. 719 Emerged, Heavy soil / No. 719 Emerged, Light soil / No. 719 Not Rescued, Heavy soil / No. 719 Not Rescued, Light soil: seed coating
Method: GA3, GA3-3-acetate, GA5, GA9, and GA12 are evaluated in further field trials. […] The objectives of these tests are: 1) to determine if seed coatings, as compared to imbibition, of GA compounds facilitate rescue of constitutively GA-deficient transgenic dwarf soybeans (transgenic lines 719−2 plus 719+17) without causing elongation of wild-type soybeans (line A4922), and 2) to determine the seed treatment rate ranges for each of the selected GA compounds that would provide rescue of constitutively GA-deficient transgenic dwarf soybeans (transgenic lines 719−2 plus 719+17) without causing elongation of wild-type soybeans (line A4922).
Seeds are treated with GA3, GA5, GA9, GA12, and GA3-3-acetate at rates of 0, 0.1, 1, 10, and 100 μg/seed. These GA compounds are applied to the seeds using a Hege 11 seed treater (Hans-Ulrich Hege GmbH & Co., Waldenburg, Germany); 100% acetone is used as the carrier solvent. The amount of liquid introduced into the seed treater is six fluid ounces/100 lbs seed rate. In addition, GA12 is tested at 50 μg/seed. The untreated control (UTC) consisted of dry, untreated seeds. Seeds of constitutively GA-deficient transgenic dwarf soybean line 719 and wild-type A4922 are sown in both light and heavy soil. The planting depth is 0.5 to 1 inch (1.27 to 2.54 cm); watering is via drip irrigation. The experiment is carried out in three repetitions, using 25 seeds/plot (one five foot (152.4 cm) long row) for line 719, and 75 seeds/plot (two eight foot (243.8 cm) rows) for line A4922. Observations included total emergence, number of dwarfs not rescued, uniformity in plant height, average plant height, visual notes, and digital photos.
In all the experiments reported in Tables 17-24, treatments are replicated three times in a randomized block design. Data are analyzed using LSD (least significant difference) 0.05 probability using the PRM 5.0 Statistical Analysis Program (SAS Institute, North Carolina).

| Structure (SMILES) | effect on line 46 total height [1] | 719 Height, cm, Heavy soil ([2]; 0.1 μg compound per seed) | 719 Height, cm, Light soil ([2]; 0.1 μg compound per seed) | No. 719 Emerged, Heavy soil ([2]; 0.1 μg compound per seed) | No. 719 Emerged, Light soil ([2]; 0.1 μg compound per seed) | No. 719 Not Rescued, Heavy soil ([2]; 0.1 μg compound per seed) | No. 719 Not Rescued, Light soil ([2]; 0.1 μg compound per seed) | 719 Height, cm, Heavy soil ([2]; 1 μg compound per seed) | 719 Height, cm, Light soil ([2]; 1 μg compound per seed) | No. 719 Emerged, Heavy soil ([2]; 1 μg compound per seed) | No. 719 Emerged, Light soil ([2]; 1 μg compound per seed) | No. 719 Not Rescued, Heavy soil ([2]; 1 μg compound per seed) | No. 719 Not Rescued, Light soil ([2]; 1 μg compound per seed) | 719 Height, cm, Heavy soil ([2]; 10 μg compound per seed) | 719 Height, cm, Light soil ([2]; 10 μg compound per seed) | No. 719 Emerged, Heavy soil ([2]; 10 μg compound per seed) | No. 719 Emerged, Light soil ([2]; 10 μg compound per seed) | No. 719 Not Rescued, Heavy soil ([2]; 10 μg compound per seed) | No. 719 Not Rescued, Light soil ([2]; 10 μg compound per seed) | 719 Height, cm, Heavy soil ([2]; 100 μg compound per seed) | also measured |
| --- | --- | --- | --- | --- | --- | --- | --- | --- | --- | --- | --- | --- | --- | --- | --- | --- | --- | --- | --- | --- | --- |
| C=C1C[C@]23C[C@@]1(O)CC[C@H]2[C@@]12C=C[C@H](OC(C)=O)[C@@](C)(C(=O)O1)[C@H]2[C@@H]3C(=O)O [GA3-3-acetate] | rescued AX5/asCPScc soybean line 46 total height, with some hypocotyl over-elongation | 3.3 e-i cm | 5.3 efg cm | 18.7 a-d | 21.0 ab | 0.3 ef | 0.7 | 6.0 cd cm | 6.3 e cm | 21.3 abc | 21.7 ab | 0 f | 0.3 | 9.0 ab cm | 9.3 cm·days | 17.7 a-e | 20.3 a-d | 0 f | 0 | 8.7 ab cm | 719 Height, cm, Light soil ([2]; 100 μg compound per seed): 12.0 b cm; No. 719 Emerged, Heavy soil ([2]; 100 μg compound per seed): 16.7 b-e; No. 719 Emerged, Light soil ([2]; 100 μg compound per seed): 17.7 b-f; No. 719 Not Rescued, Heavy soil ([2]; 100 μg compound per seed): 0 f; No. 719 Not Rescued, Light soil ([2]; 100 μg compound per seed): 0; preferred seed coating rate in this experiment ([2]; judged on lines 719 and A4922, light and heavy soil): about 1 μg per seed |
| C=C1C[C@]23C[C@@]1(O)CC[C@H]2[C@@]12CC=C[C@@](C)(C(=O)O1)[C@H]2[C@@H]3C(=O)O [GA5] | rescued AX5/asCPScc soybean line 46 total height, with some hypocotyl over-elongation | 5.0 def cm | 4.3 fg·cm | 22.0 ab | 21.7 ab | 1.7 def | 4.3 c | 4.7 g·cm·days | 6.3 e cm | 21.0 abc | 22.7 a | 0.7 ef | 0 | 7.3 bc cm | 11.3 bc cm | 20.0 a-d | 20.0 a-d | 0.3 ef | 0.7 | 9.0 ab cm | 719 Height, cm, Light soil ([2]; 100 μg compound per seed): 12.0 b cm; No. 719 Emerged, Heavy soil ([2]; 100 μg compound per seed): 12.3 ef; No. 719 Emerged, Light soil ([2]; 100 μg compound per seed): 14.3 f; No. 719 Not Rescued, Heavy soil ([2]; 100 μg compound per seed): 0 f; No. 719 Not Rescued, Light soil ([2]; 100 μg compound per seed): 0 |
